Data set [1] has as its target T1, human dopamine D3 receptors (Homo sapiens, UniProt P35462).
T1 construct: expressed in transfected cells
The data set is described as follows: Receptor binding study, dopamine D3 receptor ([125I]-iodosulpride displacement). Particulars: membranes from HEK-293 cells, 0.1 nM [125I]-iodosulpride. As for the experimental part: (§1) The substance to be tested was dissolved either in methanol/Chremophor® (BASF-AG) or in dimethyl sulfoxide and then diluted with water to the desired concentration.
The mixture (0.250 ml) is composed of membranes from ˜10^6 HEK-293 cells with stably expressed human dopamine D3 receptors, 0.1 nM [^125I]-iodosulpride and incubation buffer (total binding) or with addition of test substance (inhibition plot) or 1 μM spiperone (nonspecific binding). Triplicate mixtures were carried out.
The incubation buffer contained 50 mM Tris, 120 mM NaCl, 5 mM KCl, 2 mM CaCl2, 2 mM MgCl2 and 0.1% bovine serum albumin, 10 μM quinolone, 0.1% ascorbic acid (prepared fresh each day). The buffer was adjusted to pH 7.4 with HCl.
(§2) After incubation at 25° C. for 60 minutes, the mixtures were filtered under vacuum through Wathman GF/B glass fiber filters using a cell harvester. The filters were transferred by a filter transfer system into scintillation vials. After addition of 4 ml of Ultima Gold® (Packard), the samples were shaken for one hour and then the radioactivity was calculated in a beta counter (Packard, Tricarb 2000 or 2200CA). The cp values were converted into dpm by means of a standard quench series with the aid of the instrument's own program.
(§3) Evaluation of the inhibition plots took place by iterative nonlinear regression analysis using the statistical analysis system (SAS) similar to the “LIGAND” program described by Munson and Rodbard.

The target of data set [2] is T2, human dopamine D2 (L) receptors (long isoform) (Homo sapiens, UniProt P14416).
T2 construct: expressed in transfected cells
Nature of the data set: Receptor binding study, dopamine D2(L) receptor ([125I]-iodospiperone displacement). Particulars: selectivity ratio D2(L) versus D3 binding. As to the method:
as §1
The mixture (1 ml) was composed of membranes from ˜10^6 HEK-293 cells with stably expressed human dopamine D2 (L) receptors (long isoform) and 0.01 nM [^125I]-iodospiperone and incubation buffer (total binding) or with addition of test substance (inhibition plot) or 1 μM haloperidol (nonspecific binding). Triplicate mixtures were carried out.
The incubation buffer contained 50 mM Tris, 120 mM NaCl, 5 mM KCl, 2 mM CaCl2, 2 mM MgCl2 and 0.1% bovine serum albumin. The buffer was adjusted to pH 7.4 with HCl.
as §2, §3

The nature of data set [3]: Investigation of the cerebral availability and the oral bioavailability. The data set is classed as in vivo, male Wistar rats. Particulars: rat; for bioavailability / Kp: male, Wistar; for bioavailability: plasma, AUCoral/AUCiv, oral 10 mg/kg, intravenous 2 mg/kg, read-out: F (bioavailability); for Kp: brain/plasma, oral, 10 mg/kg of body weight, read-out: AUCbrain/AUCplasma; for cmax (brain) / AUCbrain: oral (gavage) 10 mg/kg, brain tissue; for AUCbrain: trapezoidal method. As to the method: The test substances were administered to male Wistar rats in parallel experiments in each case intravenously (tail vein, 2 mg/kg of body weight) and orally (gavage, 10 mg/kg of body weight). The test compound was dissolved in water with up to 4% by volume of DMSO and/or ethanol for intravenous administration and suspended in 4% by weight aqueous hydroxypropyl-cellulose solution for oral administration. After various times (intravenous: 5 min, 15 min, 30 min, 2 h, 8 h and 24 h; oral: 15 min, 30 min, 2 h, 8 h and 24 h) after the administration, a blood sample or brain tissue were taken from 2 rats in each case. The concentration of the test compound in the blood plasma and in the brain tissue (plasma and brain) was determined in a conventional way by coupled liquid chromatography/mass spectroscopy or by HPLC. The area under the concentration-time plot for brain (AUCbrain) and for plasma (AUCiV, AUCoral) were by means of the trapezoidal method from the results obtained [((tn−tn-1)×(cn+cn-1)/2) calculated, in which tn is the time of determination and tn-1 is the preceding time of determination, and cn and cn-1 are respectively the concentrations at time tn and tn-1]. The maximum concentration of the active ingredients in brain tissue cmax brain, the value of AUCbrain, and the AUCbrain/AUCplasma ratio is a measure of the cerebral availability of the active substance. In addition, the bioavailability F of the active ingredient was calculated in a manner known per se from the data (AUCoral/AUCiv in %).

SMILES strings stand for the structures. Structures can show the parent of a compound that is named as a salt.

T1 sequence (P35462 whole entry): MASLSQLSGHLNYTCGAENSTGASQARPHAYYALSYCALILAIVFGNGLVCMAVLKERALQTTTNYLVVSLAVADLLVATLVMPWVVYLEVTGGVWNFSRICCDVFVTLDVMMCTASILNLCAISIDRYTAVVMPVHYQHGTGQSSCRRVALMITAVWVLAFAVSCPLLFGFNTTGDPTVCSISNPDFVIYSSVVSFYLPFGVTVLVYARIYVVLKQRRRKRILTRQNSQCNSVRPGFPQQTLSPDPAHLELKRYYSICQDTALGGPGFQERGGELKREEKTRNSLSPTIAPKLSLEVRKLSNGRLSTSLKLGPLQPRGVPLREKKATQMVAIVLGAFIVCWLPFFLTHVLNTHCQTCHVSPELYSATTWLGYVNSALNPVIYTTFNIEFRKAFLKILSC
T2 sequence (P14416 whole entry, canonical isoform): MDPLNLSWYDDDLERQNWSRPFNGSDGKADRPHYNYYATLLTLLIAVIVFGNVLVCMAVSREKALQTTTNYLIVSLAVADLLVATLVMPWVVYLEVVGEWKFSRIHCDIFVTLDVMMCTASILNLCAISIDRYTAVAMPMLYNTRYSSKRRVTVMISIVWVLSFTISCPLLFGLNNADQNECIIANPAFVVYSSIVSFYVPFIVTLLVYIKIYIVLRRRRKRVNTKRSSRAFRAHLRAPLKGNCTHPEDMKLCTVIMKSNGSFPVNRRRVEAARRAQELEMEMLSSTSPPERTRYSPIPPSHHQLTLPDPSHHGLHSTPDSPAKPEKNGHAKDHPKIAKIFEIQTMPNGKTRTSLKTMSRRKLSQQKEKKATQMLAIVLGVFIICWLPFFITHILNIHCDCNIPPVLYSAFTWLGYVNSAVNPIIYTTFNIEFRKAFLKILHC

With `CCC(=O)c1ccc2c(c1)CN(CCCSc1nnc(-c3cccn3C)n1C)CC2` (as salt: hydrochloride) [Ia′-15, 2-(3-{[4-Methyl-5-(1-methyl-1H-pyrrol-2-yl)-4H-1,2,4-triazol-3-yl]thio}propyl)-7-propionyl-1,2,3,4-tetrahydroisoquinoline], the melting point lay within 181 to 184 °C.

Consider `Cn1c(SCCCN2CCc3ccc(C(=O)c4ccccc4)cc3C2)nnc1-c1ccsc1` (as salt: hydrochloride) [Ia′-18, 7-Benzoyl-2-{3-[(4-methyl-5-thien-3-yl-4H-1,2,4-triazol-3-yl)thio]propyl}-1,2,3,4-tetrahydroisoquinoline], for which the melting point was found to be 140 °C.

`Cn1c(SCCCN2CCc3ccc(C(=O)c4cccc(F)c4)cc3C2)nnc1-c1ccccc1` (as salt: hydrochloride) [Ia′-68, 7-(3-Fluorobenzoyl)-2-{3-[(4-methyl-5-phenyl-4H-1,2,4-triazol-3-yl)thio]propyl}-1,2,3,4-tetrahydroisoquinolines] showed a melting point of 147 °C.

`Cn1c(SCCCN2CCc3ccc(C(=O)c4ccccc4)cc3C2)nnc1-c1ccncc1` [Ia′-1, 7-Benzoyl-2-{3-[(4-methyl-5-pyridin-4-yl-4H-1,2,4-triazol-3-yl)thio]propyl}-1,2,3,4-tetrahydroisoquinoline] registered a Ki in data set [1] of 11.4 nM. The “Ki (D2)/Ki (D3)” value in data set [2] turned out to be 133.

In data set [1], `Cn1c(SCCCN2CCc3ccc(C(=O)c4ccccc4)cc3C2)nnc1-c1ccco1` [Ia′-3, 7-Benzoyl-2-(3-{[5-(2-furyl)-4-methyl-4H-1,2,4-triazol-3-yl]thio}propyl)-1,2,3,4-tetrahydroisoquinoline] registered a Ki of 19.3 nM. For the same compound, the “Ki (D2)/Ki (D3)” value in data set [2] amounted to 40.

`CC(=O)c1ccc2c(c1)CN(CCCSc1nnc(-c3cccn3C)n1C)CC2` [Ia′-4, 7-Acetyl-2-(3-{[4-methyl-5-(1-methyl-1H-pyrrol-2-yl)-4H-1,2,4-triazol-3-yl]thio}propyl)-1,2,3,4-tetrahydroisoquinoline] yielded a Ki in data set [1] of 4.5 nM. Moreover, the “Ki (D2)/Ki (D3)” value in data set [2] is 80.

Consider `Cn1cccc1-c1nnc(SCCCN2CCc3ccc(C(=O)c4ccccc4)cc3C2)n1C` [Ia′-12, 7-Benzoyl-2-(3-{[4-methyl-5-(1-methyl-1H-pyrrol-2-yl)-4H-1,2,4-triazol-3-yl]thio}propyl)-1,2,3,4-tetrahydroisoquinoline], for which the Ki in data set [1] stood at 10.7 nM. Further, the “Ki (D2)/Ki (D3)” value in data set [2] was 90. Besides, in data set [3], the bioavailability was found to be 10%, the Kp came to 0.2, the “cmax (brain)” value is given as 130 ng/g and the AUCbrain amounted to 306 ng·h/g.

As to `CCC(=O)c1ccc2c(c1)CN(CCCSc1nnc(-c3cccn3C)n1C)CC2` [Ia′-15, 2-(3-{[4-Methyl-5-(1-methyl-1H-pyrrol-2-yl)-4H-1,2,4-triazol-3-yl]thio}propyl)-7-propionyl-1,2,3,4-tetrahydroisoquinoline], in data set [1], the inhibitory constant (Ki) was 4.4 nM. Moreover, in data set [2], the “Ki (D2)/Ki (D3)” value was 103. In data set [3], the bioavailability stood at 100%, the Kp is 0.3, the “cmax (brain)” value is given as 686 ng/g and the AUCbrain was 2903 ng·h/g.

For `Cn1c(SCCCN2CCc3ccc(C(=O)c4ccccc4)cc3C2)nnc1-c1ccsc1` [Ia′-18, 7-Benzoyl-2-{3-[(4-methyl-5-thien-3-yl-4H-1,2,4-triazol-3-yl)thio]propyl}-1,2,3,4-tetrahydroisoquinoline], the Ki in data set [1] is 22.4 nM. In data set [2], the “Ki (D2)/Ki (D3)” value came to 48.

On to `Cn1c(SCCCN2CCc3ccc(C(=O)c4ccccc4)cc3C2)nnc1-c1ccccc1` [Ia′-19, 7-Benzoyl-2-{3-[(4-methyl-5-phenyl-4H-1,2,4-triazol-3-yl)thio]propyl}-1,2,3,4-tetrahydroisoquinolines], for which the Ki in data set [1] stood at 8.6 nM. Further, in data set [2], the “Ki (D2)/Ki (D3)” value is 149.

In the case of `CCC(=O)c1ccc2c(c1)CN(CCCSc1nnc(-c3ccccc3)n1C)CC2` [Ia′-25, 2-{3-[(4-methyl-5-phenyl-4H-1,2,4-triazol-3-yl)thio]propyl}-7-propionyl-1,2,3,4-tetrahydroisoquinoline], the Ki in data set [1] stood at 4.4 nM. For the same compound, the “Ki (D2)/Ki (D3)” value in data set [2] stood at 90.

For `CC(=O)c1ccc2c(c1)CN(CCCSc1nnc(-c3cccnc3)n1C)CC2` [Ia′-39, 7-Acetyl-2-{3-[(4-methyl-5-pyridin-3-yl-4H-1,2,4-triazol-3-yl)thio]propyl}-1,2,3,4-tetrahydroisoquinolines], the Ki in data set [1] was determined as 18.8 nM. Further, the “Ki (D2)/Ki (D3)” value in data set [2] worked out at 37.

For the compound `CCC(=O)c1ccc2c(c1)CN(CCCSc1nnc(-c3cc4ccccc4s3)n1C)CC2` [Ia′-57, 1-[2-(3-{[5-(1-Benzothien-2-yl)-4-methyl-4H-1,2,4-triazol-3-yl]thio}propyl)-1,2,3,4-tetrahydroisoquinolin-7-yl]propan-1-one], affinity in data set [1] was put at a Ki of 2.6 nM. For the same compound, in data set [2], the “Ki (D2)/Ki (D3)” value is 59.

In the case of `Cn1c(SCCCN2CCc3ccc(C(=O)c4cccc(F)c4)cc3C2)nnc1-c1cnccn1` [Ia′-58, 7-(3-Fluorobenzoyl)-2-{3-[(4-methyl-5-pyrazin-2-yl-4H-1,2,4-triazol-3-yl)thio]propyl}-1,2,3,4-tetrahydroisoquinoline], affinity in data set [1] was put at a Ki of 25.5 nM. Also, the “Ki (D2)/Ki (D3)” value in data set [2] is 39.

Consider `Cn1cccc1-c1nnc(SCCCN2CCc3ccc(C(=O)c4cccc(F)c4)cc3C2)n1C` [Ia′-60, 7-(3-Fluorobenzoyl)-2-(3-{[4-methyl-5-(1-methyl-1H-pyrrol-2-yl)-4H-1,2,4-triazol-3-yl]thio}-propyl)-1,2,3,4-tetrahydroisoquinoline], for which the Ki in data set [1] turned out to be 30.3 nM. Moreover, the “Ki (D2)/Ki (D3)” value in data set [2] worked out at 37.

In the case of `Cn1c(SCCCN2CCc3ccc(C(=O)c4cccc(F)c4)cc3C2)nnc1-c1cccnc1` [Ia′-63, 7-(3-Fluorobenzoyl)-2-{3-[(4-methyl-5-pyridin-3-yl-4H-1,2,4-triazol-3-yl)thio]propyl}-1,2,3,4-tetrahydroisoquinolines], in data set [1], the Ki was 40.3 nM. Moreover, the “Ki (D2)/Ki (D3)” value in data set [2] came to 38.

Compound `Cn1c(SCCCN2CCc3ccc(C(=O)c4cccc(F)c4)cc3C2)nnc1-c1ccccc1` [Ia′-68, 7-(3-Fluorobenzoyl)-2-{3-[(4-methyl-5-phenyl-4H-1,2,4-triazol-3-yl)thio]propyl}-1,2,3,4-tetrahydroisoquinolines] gave a Ki in data set [1] of 14.9 nM. Also, the “Ki (D2)/Ki (D3)” value in data set [2] is on record as 56.

Regarding `CCC(=O)c1ccc2c(c1)CN(CCCSc1nnc(-c3ccccc3)n1C)C2.Cl` [Ib′-25, 1-(2-{3-[(4-Methyl-5-phenyl-4H-1,2,4-triazol-3-yl)thio]propyl}-2,3-dihydro-1H-isoindol-5-yl)propan-1-one hydrochloride], in data set [1], the Ki was determined as 21.4 nM. Besides, the “Ki (D2)/Ki (D3)” value in data set [2] is given as 126.

`CCC(=O)c1ccc2c(c1)CN(CCCSc1nnc(-c3ccc[nH]3)n1C)C2.Cl` [Ib′-65, 1-[2-(3-{[4-Methyl-5-(1H-pyrrol-2-yl)-4H-1,2,4-triazol-3-yl]thio}propyl)-2,3-dihydro-1H-isoindol-5-yl]propan-1-one hydrochloride]: in data set [1], affinity was put at a Ki of 40 nM. Moreover, in data set [2], the “Ki (D2)/Ki (D3)” value was 49.

A word on the melting point: it is the temperature of the solid-liquid transition. A word on the Ki: it is a dissociation constant, usually derived from enzyme kinetics or from competition with a known ligand. High values mean weaker binding, low ones tighter binding. In general, bioavailability refers to the share of a dose that reaches the circulation, judged against a reference dose that is usually intravenous.

Source of the values: patent publication US7465744B2, “Triazole compounds and the therapeutic use thereof” (Abbott GmbH & Co. KG, priority 2003, dated 2008).
